Measured values as given in article PMC7801115, “Preclinical in vitro screening of newly synthesised amidino substituted benzimidazoles and benzothiazoles” (Journal of Enzyme Inhibition and Medicinal Chemistry, 2021).
Where two headings read alike, the source gives them in different places.

Legend:
[1] = system: A549; assay: Cell viability assay, 3D hanging drop cell culture (CellTiter GLO 3D); format: cell-based; settings: Homo sapiens; A549, 3D hanging drop cell culture, 72 h; ±SD, N = 2; read-out: IC50 antitumor activity A549 3D
Protocol: (§1) Compounds are diluted 1:3. 500 nL (for 2 D cell culture) or 400 nL (for 3 D cell culture) of compound were transferred from mother plate to test plate by using Mosquito (TTP labtech). DMSO percentage in test concentrations was 0.5 − 1.0%. Starting concentration of the test compounds and standard compound doxorubicin was 50 µM (2 D cell culture) or 100 µM (3 D cell culture).
(§2) Cells were grown in 96 well Perfecta 3 D hanging drop plates 5000 cell/well for 4 days until spheres were formed (and checked under the microscope). After sphere formation cells were treated with compounds followed by 72 h incubation. Cell viability assay was performed according to the manufacturer’s instruction, using CellTiter GLO 3 D for 3 D cell culture (Promega); cell incubation was 5 min on the shaker followed by 25 min incubation in the dark. Plates were read using PE EnVision luminescence.
(§3) Calculation of IC50 data, curves and QC analysis is made by using Excel tools and GraphPadPrism software (La Jolla, CA), v. […] QC criteria parameters (Z', S:B, R2, HillSlope) were checked for every IC50 curve.

[2] = system: HCC827; assay: as above; format: cell-based; settings: Homo sapiens; HCC827, 3D hanging drop cell culture, 72 h; ±SD, N = 2; read-out: IC50 antitumor activity HCC827 3D
Protocol: as §1, §2, §3

[3] = system: NCI-H358; assay: as above; format: cell-based; settings: Homo sapiens; NCI-H358, 3D hanging drop cell culture, 72 h; ±SD, N = 2; read-out: IC50 antitumor activity NCI-H358 3D
Protocol: as §1, §2, §3

[4] = system: HCC827; assay: BrdU proliferation assay, 2D cell culture; format: cell-based; settings: Homo sapiens, HCC827, 2D cell culture, ±SD, N = 2
Protocol: (§4) Cells were grown in 96 well cell star polystyrene plates. 10,000 cells/well were seeded in wells 4 h prior the treatment with different compounds concentrations and incubated for 72 h. A cell viability assay was performed according to the manufacturer’s instruction, using CellTiter 96 aqueous solution, MTS kit (Promega, Madison, WI, USA). After 0.5–2 h of cell incubation with MTS in 2 D cell culture, the plates were read using PE EnVision absorbance at 490 nm. […] Since we prefer homogeneous assays (mix and read procedures) and therefore MTS is more practical (one step less than MTT). MTS is more sensitive and accurate in comparison with MTT assay.
(§5) Proliferation assay was performed using Cell Proliferation ELISA, BrdU (Sigma, St. Louis, MO, USA). Briefly, 48 h hours after compound addition, 10 µM of BrdU was added to each well and incubated for following 24 h. After incubation, single cell suspension was made for 3 D cell culture in the new 96 well plate. Plates were centrifuged and supernatants were removed from each plate (for 2 D and 3 D cell culture) followed by 60 min incubation at 60° C. The rest of the proliferation assay was performed according to the manufacturer instructions.
as §3

[5] = system: NCI-H358; assay: BrdU proliferation assay, 2D cell culture; format: cell-based; settings: Homo sapiens, NCI-H358, 2D cell culture, ±SD, N = 2
Protocol: as §4, §5, §3

[6] = system: HCC827; assay: BrdU proliferation assay, 3D cell culture; format: cell-based; settings: Homo sapiens, HCC827, 3D cell culture, ±SD, N = 2
Protocol: as §2, §5, §3

[7] = Plasma protein binding, equilibrium dialysis; format: in vitro ADME; settings: for fraction unbound at 4 h, 5 µM: equilibrium dialysis 4 h, 37 °C; for recovery at 4 h, 5 µM: recovery in PPB experiment (value in brackets)
Protocol: The extent of binding to plasma proteins was assessed using equilibrium dialysis method. Plasma (human and mouse) was spiked with test compounds and three controls (nicardipine and verapamil in both species, acebutolol in human and caffeine in mouse plasma) to obtain final concentration of 5 µM (0.5%DMSO). Hydrated membranes were inserted into equilibrium dialysis unit (HT Dialysis) according to manufacturer’s instructions. The dialysate side was then loaded with appropriate volume of buffer, while the same volume of spiked plasma was added into sample side of the well. Incubation lasted 4 h at 37 °C with gentle shaking. Afterwards, protein precipitation was done by mixing matrix matched aliquot of plasma or buffer with 3 volumes of MeCN/MeOH (2:1) mixture, containing internal standard (diclofenac). After centrifugation (at 4500 rpm, at 4 °C, for 30 min) resulting supernatants were subjected to LC-MS/MS.
All ADME samples were analysed on a Sciex API 4000 or Sciex API4500 Triple Quadrupole Mass Spectrometer (Sciex, Framingham, MA, USA) coupled to a UHPLC System (Shimadzu Nexera X2; Shimadzu, Kyoto, Japan). Samples were injected onto an UPLC column (HALO2 C18, 2.1 × 20 mm, 2 µm or Phenomenex Luna Omega Polar C18, 30 × 2.1 mm, 1.6 µm) and eluted with a gradient at temperature of 50 °C. The mobile phase was composed of acetonitrile (with 0.1% formic acid) and 0.1% formic acid in deionised water. A total run time was 1 or 1.5 min, with the flow rate of 0.7 ml/min (under gradient conditions). A positive ion mode with turbo spray, an ion source temperature of 500 °C and a dwell time of 150 ms were utilised for mass spectrometric detection. Multiple reaction monitoring (MRM) was used at the specific transitions for each compound/control tested: compound 5c: 361.9 → 304.9; compound 5d: 344.8 → 287.9; compound 5e: 349.8 → 292.9; compound 5 g: 350.8 → 293.9; compound 5 h: 344.0 → 286.9; compound 6a: 276.9 → 220.0; compound 5 b: 319.0 → 262.0; compound 6 b: 302.1 → 245.1; compound 6c: 344.9 → 288.0; compound 6d: 333.0 → 276.0; compound 6e: 316.1 → 259.0; compound 6f: 327.1 → 270.0; compound 6 g: 377.1 → 320.1; testosterone: 289.3→ 97.1; propranolol: 260.1 → 182.8; caffeine: 195.2 → 138.1; acebutolol: 337.2 → 116.2, nicardipine: 480.2 → 315.0; verapamil: 455.4 → 165.1; amprenavir: 506.2 → 245.4; diclofenac: 296.1 → 213.7 or 296.2 → 215.3; eucatropine: 292.2 → 109.1; benfluorex: 352.1 → 230.3, and warfarin: 309.2 → 163.2

[8] = human plasma, read-out: PPB % bound, Human (converted)
[9] = mouse plasma, read-out: PPB % bound, Mouse (converted)

IC50 [1] | IC50 [2] | IC50 [3] | IC50 [4] | IC50 [5] | IC50 [6] | fraction unbound at 4 h, 5 µM [7, 8] | recovery at 4 h, 5 µM ([7]; human plasma) | fraction unbound at 4 h, 5 µM [7, 9] | recovery at 4 h, 5 µM ([7]; mouse plasma) | SMILES
> 100 µM | > 100 µM | > 100 µM | > 50 µM | > 50 µM | > 100 µM | 0.19 | 91% | 0.12 | 102% | c1ccc2cc(-c3nc4cc(C5=NCCCN5)ccc4[nH]3)ccc2c1 [Compound 6f, 2-(Naphthalene-2-yl)-5(6)–(3,4,5,6-tetrahydropyrimidin-1-ium-2-yl)benzimidazole chloride]
> 100 µM | > 100 µM | > 100 µM | > 50 µM | > 50 µM | > 100 µM | 0.144 | 97% | 0.13 | 117% | FC(F)(F)c1ccc(-c2nc3cc(C4=NCCCN4)ccc3[nH]2)cc1 [Compound 6c, 2–(4-Trifluoromethylphenyl)-5(6)–(3,4,5,6-tetrahydropyrimidin-1-ium-2-yl)benzimidazole chloride]
